Measured values: US11579141B2, “Methods for identifying a non-healing skin wound and for monitoring the healing of a skin wound” (AKRIBES BIOMEDICAL GMBH, priority 2016, dated 2023)

How the values were obtained:
[1] = system: primary human dermal fibroblasts (HDF); assay: Primary human dermal fibroblast (HDF) proliferation assay (2D), SRB staining; assay type: cell-based
Description: Primary human dermal fibroblasts (HDF) were purchased from CELLnTEC, Bern. They were routinely grown in Dulbecco's modified Eagle's medium (DMEM) containing 10% FCS, 2 mM glutamine, and 100 U/ml penicillin/100 μg/ml streptomycin. Media, antibiotics, and glutamine were bought from Lonza. The cells were used at passage 10. Cells were trypsinized and seeded at 5000 cells/well in 200 μl into the inner wells of 96-well plates. The outer wells were loaded with sterile water. The cells were allowed to adhere overnight and then incubated for 72 hours at 37° C. under the following conditions: graded compound concentrations or 20 ng/ml PDGF-BB (Tonbo Biosciences # TO-21-8501-U010) in the absence or presence of different dilutions of sterile-filtered WE in medium. For negative control samples, 200 μl medium was added instead of specific stimuli. Alternatively, the cells were seeded into 384-well plates at 2500 cells/well together with test compounds or growth factors and WE or medium in a total volume of 50 μl. […]
Total cellular protein was determined as a measure of cell number by staining the fixed cells with sulforhodamine B (SRB, Sigma). […] After drying, the dye was eluted with 10 mM Tris.HCl, pH8.5, and absorbance was measured either at 550 or 492 nm for lower and higher cell densities, respectively. The average absorbance of the sample representing the day 1 starting cell number (for 96-well plates) was subtracted from the absorbance values of the WE-treated cells.
All experiments were carried out in triplicate for each sample and concentration, and means±standard deviation (SD) were used for the evaluation of the experiment. Results are expressed as percentage of control values for unstimulated cells.
For screening with WE, compound results were calculated as % proliferation of untreated and unstimulated control (=100%), and the cut-off for a positive hit was defined as % average proliferationWE+3*standard deviation, as shown in FIG. 5.

chronic wounds = conditions: non-steroidal anti-inflammatory drug; cited from earlier work

## PDGF
[1]; in presence of aggressive, non-healing WE #49, FIG. 21
  effect on the growth inhibitory effect of wound exudate in 2D fibroblast proliferation: only partially reverses

## CC(C)Cc1ccc(C(C)C(=O)O)cc1 (stereo not shown) [ibuprofen]
Chronic wounds
  effectiveness in wounds: only effective in ameliorating wound pain

## CNC(=O)[C@H](Cc1c[nH]c2ccccc12)NC(=O)[C@@H](CC(=O)NO)CC(C)C [GM6001]
[1]; in presence of WE #49 (highest MMP activity), FIG. 22
  effect on the effect of wound exudate on HDF proliferation: partially reverses
[1]; medium or WE without MMP activity, FIG. 22
  effect on HDF proliferation: no effect
